Patent EP3313408B1, “DROSPIRENONE-BASED CONTRACEPTIVE FOR A PATIENT AFFECTED WITH EXCESS WEIGHT” (Laboratorios Leon Farma SA, priority 2015, dated 2016)

Test: Trial CF111/302: number of days with bleeding and/or spotting over 9 treatment cycles
Type: in vivo, women
Protocol: The study CF111/302 below represents a pivotal, multicentre, double-blind, double-dummy, randomised trial on the contraceptive efficacy, tolerability and safety of LF111 (DRSP) over 9 cycles of 28 days of treatment (24 active test product tablets followed by 4 days of placebo tablets).
LF111 film-coated tablets (test product; 24 tablets containing 4 mg DRSP followed by 4 placebo tablets; León Farma) was orally administered during this trial. LF111 tablets are of the following formula: […]
This prospective, multicentre, randomised, double-blind, double-dummy trial was conducted on 857 women without uncontrolled current diseases, at risk of pregnancy, at the age of 18-45 years, systolic blood pressure < 140 mmHg, diastolic blood pressure < 90 mmHg followed in approximately 73 centres in Austria, Czech Republic, Germany, Hungary, Poland, Romania, Slovakia and Spain.
After providing informed consent at visit 1a (screening; V 1a) and receiving study medication at visit 1b, subjects will attend visits 2 to 4 at day 24±2 of the 1st, 3rd, and 6th cycle, and visit 5 (V5) at day 29+2 of the 9th cycle. The follow-up (visit 6; V6) will take place 7-10 days after last LF1 1 1 intake.
The planned total duration of the trial was set to be 16 months, with a maximum of 6 months for the enrolment process, a maximum of 9 months for the contraceptive treatment per se and 10 days for the follow-up step. The duration of contraceptive treatment for the individual women is 9 x 28 days. […]

Bleeding or spotting Mean # days (Period cycles 2-4, BMI < 30 kg/m^2): 16.6 days | Bleeding or spotting Mean # days (Period cycles 2-4, BMI ≥ 30 kg/m^2): 21.8 days | Bleeding or spotting Mean # days (Period cycles 2-6, BMI < 30 kg/m^2): 24.1 days | Bleeding or spotting Mean # days (Period cycles 2-6, BMI ≥ 30 kg/m^2): 16.3 days | Bleeding or spotting Mean # days (Period cycles 2-9, BMI < 30 kg/m^2): 34.7 days | Bleeding or spotting Mean # days (Period cycles 2-9, BMI ≥ 30 kg/m^2): 33.9 days
SMILES: C#C[C@]1(O)CC[C@H]2[C@@H]3CCC4=CCCC[C@@H]4[C@H]3C(=C)C[C@@]21CC [desogestrel]
